Experimental data as given in patent publication US20240059677A1, “SUBSTITUTED PYRIMIDINE DERIVATIVES AS NICOTINIC ACETYLCHOLINESTERASE RECEPTOR ALPHA 6 MODULATOR” (priority 2020, published 2024).
Read-outs that look alike come from different tables or passages of the source.

Molecular target: T1, human nAChRα6-α3 chimera, in addition to β2 and β3^V273S subunits (Homo sapiens, UniProt P32297+Q15825)
T1 construct: expressed in transfected cells
Test: fluorescence-based calcium assay: inhibition of nicotine stimulated nAChRα6 activity (FLIPR)
Conditions: HEK cell line stably expressing the receptor, 10 min pre-incubation, nicotine EC80, 10-point curve, duplicate wells
Outline: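 HEK cells stably expressing the human α6-α3 chimera with β2 and β3^V273S were loaded with calcium dye at 30° C. Compounds were pre-incubated for 10 min before nicotine at EC80, and the fluorescence change was read on a FLIPR. Ten-point half-log concentration-response, duplicate wells.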

T1 sequence (Q05901 25-458 V273S): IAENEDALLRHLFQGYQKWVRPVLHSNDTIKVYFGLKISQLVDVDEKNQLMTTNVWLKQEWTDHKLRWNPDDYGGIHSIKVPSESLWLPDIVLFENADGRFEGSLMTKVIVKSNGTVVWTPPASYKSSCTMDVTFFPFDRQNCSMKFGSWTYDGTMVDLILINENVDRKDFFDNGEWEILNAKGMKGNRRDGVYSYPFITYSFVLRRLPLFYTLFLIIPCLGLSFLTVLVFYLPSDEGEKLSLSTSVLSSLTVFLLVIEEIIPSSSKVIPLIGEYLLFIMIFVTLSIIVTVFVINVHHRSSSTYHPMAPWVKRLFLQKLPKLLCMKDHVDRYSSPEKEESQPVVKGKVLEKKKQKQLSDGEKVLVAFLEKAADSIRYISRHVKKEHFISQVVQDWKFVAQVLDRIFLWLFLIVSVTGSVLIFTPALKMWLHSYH
T1 sequence (P17787 26-502, stated change not applied, further chain): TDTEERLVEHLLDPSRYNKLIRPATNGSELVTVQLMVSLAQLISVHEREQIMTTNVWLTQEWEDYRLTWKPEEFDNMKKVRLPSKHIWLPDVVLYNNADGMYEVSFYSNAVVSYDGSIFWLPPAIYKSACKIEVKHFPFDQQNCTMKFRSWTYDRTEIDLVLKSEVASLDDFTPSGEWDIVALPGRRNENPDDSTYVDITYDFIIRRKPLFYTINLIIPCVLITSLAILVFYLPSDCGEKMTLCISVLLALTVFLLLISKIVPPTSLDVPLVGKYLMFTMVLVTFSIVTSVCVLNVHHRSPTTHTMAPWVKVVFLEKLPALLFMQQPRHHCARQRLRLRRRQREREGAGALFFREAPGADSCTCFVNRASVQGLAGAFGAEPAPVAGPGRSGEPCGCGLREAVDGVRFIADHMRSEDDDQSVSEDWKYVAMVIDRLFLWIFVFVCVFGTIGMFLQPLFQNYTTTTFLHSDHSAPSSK
T1 sequence (Q15825+P32297 fused with the stated changes): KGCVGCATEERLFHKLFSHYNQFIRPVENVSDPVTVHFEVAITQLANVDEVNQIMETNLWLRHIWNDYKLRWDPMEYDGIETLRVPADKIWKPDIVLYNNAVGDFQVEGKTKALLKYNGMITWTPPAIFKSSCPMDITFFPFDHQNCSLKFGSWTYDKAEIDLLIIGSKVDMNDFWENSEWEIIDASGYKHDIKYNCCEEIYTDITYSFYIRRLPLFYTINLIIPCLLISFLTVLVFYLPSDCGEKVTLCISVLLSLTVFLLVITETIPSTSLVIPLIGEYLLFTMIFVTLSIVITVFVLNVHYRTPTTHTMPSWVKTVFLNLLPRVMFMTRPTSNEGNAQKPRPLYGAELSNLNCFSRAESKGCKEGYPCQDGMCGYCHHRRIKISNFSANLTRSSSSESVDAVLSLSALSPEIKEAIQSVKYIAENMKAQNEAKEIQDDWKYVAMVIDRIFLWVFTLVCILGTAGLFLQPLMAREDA

Compound	IC50 (IC50 (μM)) [µM]	IC50 (read-out: IC50) [µM]
Cc1nc(NC[C@@]2(C)CCCN2C)ncc1-c1ccc(C(F)(F)F)cc1F [Example 137, (R)—N-((1,2-dimethylpyrrolidin-2-yl)methyl)-5-(2-fluoro-4-(trifluoromethyl)phenyl)-4-methyl-pyrimidin-2-amine]	0.11	
CN1CCCC1CCNc1ncc(-c2ccccc2)cn1 (stereo not shown) [Example 2, N-(2-(1-methylpyrrolidin-2-yl)ethyl)-5-phenylpyrimidin-2-amine]		0.302
Cc1nc(NC(=O)[C@H]2CCCN2C)ncc1-c1ccc(C(F)(F)F)cc1F [Example 139, (R)—N-(5-(2-fluoro-4-(trifluoromethyl)phenyl)-4-methyl-pyrimidin-2-yl)-1-methylpyrrolidine-2-carboxamide]		0.086
COc1ccc(-c2nnc(NC3CCCN(C(C)C)C3)nc2C)c(F)c1 (single isomer, unassigned) [Example 76a, 6-(2-fluoro-4-methoxyphenyl)-N-(1-isopropylpiperidin-3-yl)-5-methyl-1,2,4-triazin-3-amine]		0.118
Cc1nc(NC[C@@H]2CCCN2CC(F)(F)F)ncc1-c1ccc(F)cc1F [Example 95b, (S)-5-(2,4-difluorophenyl)-4-methyl-N-((1-(2,2,2-trifluoroethyl)pyrrolidin-2-yl)methyl)pyrimidin-2-amine]		0.07
COc1ccc(-c2nnc(NCC3CCCN3C)nc2C)c(F)c1 (single isomer, unassigned) [Example 54a, 6-(2-fluoro-4-methoxyphenyl)-5-methyl-N-((1-methylpyrrolidin-2-yl)methyl)-1,2,4-triazin-3-amine]		0.331
COc1ccc(-c2cnc(NCC3CCCCN3C(C)C)nc2C)c(F)c1 (stereo not shown) [Example 50, 5-(2-fluoro-4-methoxyphenyl)-N-((1-isopropylpiperidin-2-yl)methyl)-4-methyl-pyrimidin-2-amine]		0.103
Cc1nc(NCC2CCCN2C)nnc1-c1ccc(F)cc1F (single isomer, unassigned) [Example 74b, 6-(2,4-difluorophenyl)-5-methyl-N-((1-methylpyrrolidin-2-yl)methyl)-1,2,4-triazin-3-amine]		1.47
COc1ccc(-c2cnc(NC3CCOCC3)nc2C)c(F)c1 [Example 45, 5-(2-fluoro-4-methoxyphenyl)-4-methyl-N-(tetrahydro-2H-pyran-4-yl) pyrimidin-2-amine]		1.31
Cc1nc(NC2CCN(C)C2)ncc1-c1ccc(F)cc1F (stereo not shown) [Example 29, 5-(2,4-difluorophenyl)-4-methyl-N-(1-methylpyrrolidin-3-yl)pyrimidin-2-amine]		0.095
COc1ccc(-c2cnc(NC3CCC(N(C)C)C3)nc2C#N)c(F)c1 (single isomer, unassigned) [Example 38b, 2-((3-(dimethylamino)cyclopentyl)amino)-5-(2-fluoro-4-methoxyphenyl) pyrimidine-4-carbonitrile]		0.07
Cc1nc(NC2CCN3CCCC23)ncc1-c1ccc(OC(F)(F)F)cc1F (single isomer, unassigned) [Example 97a, N-(5-(2-fluoro-4-(trifluoromethoxy)phenyl)-4-methyl-pyrimidin-2-yl)hexahydro-1H-pyrrolizin-1-amine]		0.184
Cc1nc(NCC2CCN(C)C2)ncc1-c1ccc(C(F)(F)F)cc1F (stereo not shown) [Example 99, 5-(2-fluoro-4-(trifluoromethyl)phenyl)-4-methyl-N-((1-methylpyrrolidin-3-yl)methyl)pyrimidin-2-amine]		0.083
Cc1nc(NC2CCCC(N(C)C)C2)nnc1-c1ccc(F)cc1F (single isomer, unassigned) [Example 39a, N^1-(6-(2,4-difluorophenyl)-5-methyl-1,2,4-triazin-3-yl)-N^3,N^3-dimethylcyclohexane-1,3-diamine]		0.904
COc1ccc(-c2nnc(NCC3CCCN3C)nc2C)c(F)c1 (single isomer, unassigned) [Example 18b, 6-(2-fluoro-4-methoxyphenyl)-5-methyl-N-((1-methylpyrrolidin-2-yl)methyl)-1,2,4-triazin-3-amine]		0.442
Cc1nc(N[C@H]2CN3CCC2CC3)ncc1-c1ccc(C(F)(F)F)cc1F [Example 119, (R)—N-(5-(2-fluoro-4-(trifluoromethyl)phenyl)-4-methyl-pyrimidin-2-yl) quinuclidin-3-amine]		0.155
CC(C)N1CCCC(Nc2ncc(-c3ccc(F)cc3)cn2)C1 (stereo not shown) [Example 6, 5-(4-fluorophenyl)-N-(1-isopropylpiperidin-3-yl)pyrimidin-2-amine]		0.123
COc1ccc(-c2cnc(NCC3CCCN(C(C)C)C3)nc2C)c(F)c1 (stereo not shown) [Example 49, 5-(2-fluoro-4-methoxyphenyl)-N-((1-isopropylpiperidin-3-yl)methyl)-4-methyl-pyrimidin-2-amine]		0.069
COc1ccc(-c2c(C)nc(NCC3CCCN3C)nc2C)c(F)c1 (stereo not shown) [Example 70, 5-(2-fluoro-4-methoxyphenyl)-4,6-dimethyl-N-((1-methylpyrrolidin-2-yl)methyl)pyrimidin-2-amine]		0.072

Compound	IC50 (IC50 (μM)) [µM]	IC50 (read-out: IC50) [µM]
Cc1nc(NC2CC(N(C)C)C2)ncc1-c1ccc(F)cc1F (single isomer, unassigned) [Example 68b, N^1-(5-(2,4-difluorophenyl)-4-methyl-pyrimidin-2-yl)-N^3,N^3-dimethylcyclobutane-1,3-diamine]		0.067
COc1ccc(-c2cnc(NCC3COCCN3C)nc2C)c(Cl)c1 (stereo not shown) [Example 62, 5-(2-chloro-4-methoxyphenyl)-4-methyl-N-((4-methylmorpholin-3-yl)methyl)pyrimidin-2-amine]		0.064
COc1ccc(-c2cnc(NCC3CCCO3)nc2C)c(Cl)c1 (stereo not shown) [Example 47, 5-(2-chloro-4-methoxyphenyl)-4-methyl-N-((tetrahydrofuran-2-yl)methyl) pyrimidin-2-amine]		1.25
Cc1nc(NCC2CCCCN2C)nnc1-c1ccc(F)cc1F (stereo not shown) [Example 20, 6-(2,4-difluorophenyl)-5-methyl-N-((1-methylpiperidin-2-yl)methyl)-1,2,4-triazin-3-amine]		0.49
COc1ccc(-c2cnc(NC3CCN(C(C)C)CC3)nc2C)c(F)c1 [Example 41, 5-(2-fluoro-4-methoxyphenyl)-N-(1-isopropylpiperidin-4-yl)-4-methyl-pyrimidin-2-amine]		0.081
Cc1nc(NCC2NCCC2(F)F)ncc1-c1ccc(F)cc1F (single isomer, unassigned) [Example 83b, 5-(2,4-difluorophenyl)-N-((3,3-difluoropyrrolidin-2-yl)methyl)-4-methyl-pyrimidin-2-amine]		0.456
CN1CCCC(Nc2ncc(-c3ccc(F)cc3)cn2)C1 (stereo not shown) [Example 5, 5-(4-fluorophenyl)-N-(1-methylpiperidin-3-yl)pyrimidin-2-amine]		0.635
Cc1nc(NC2CCCC(N(C)C)C2)ncc1-c1ccc(F)cc1F (single isomer, unassigned) [Example 55a, N^1-(5-(2,4-difluorophenyl)-4-methyl-pyrimidin-2-yl)-N^3,N^3-dimethylcyclohexane-1,3-diamine]		0.098
COc1ccc(-c2nnc(NC3CCCN(C(C)C)C3)nc2C)c(F)c1 (single isomer, unassigned) [Example 76b, 6-(2-fluoro-4-methoxyphenyl)-N-(1-isopropylpiperidin-3-yl)-5-methyl-1,2,4-triazin-3-amine]		0.107
Cc1nc(NC2CCN3CCCC23)ncc1-c1ccc(F)cc1F (single isomer, unassigned) [Example 86a, N-(5-(2,4-difluorophenyl)-4-methyl-pyrimidin-2-yl)hexahydro-1H-pyrrolizin-1-amine]		0.122
Cc1nc(NC2CCCN(C(C)C)C2)ncc1-c1ccc(F)cc1 (stereo not shown) [Example 9, 5-(4-fluorophenyl)-N-(1-isopropylpiperidin-3-yl)-4-methyl-pyrimidin-2-amine]		0.264
Cc1nc(NC(C)[C@H]2CCCN2)ncc1-c1ccc(C(F)(F)F)cc1F (single isomer, unassigned) [Example 129a, 5-(2-fluoro-4-(trifluoromethyl)phenyl)-4-methyl-N-((1*R)-1-((2R)-pyrrolidin-2-yl)ethyl)pyrimidin-2-amine]		0.065
Cc1nc(NC[C@@H]2CCCN2)ncc1-c1ccc(C(F)(F)F)cc1F [Example 103, (S)-5-(2-fluoro-4-(trifluoromethyl)phenyl)-4-methyl-N-(pyrrolidin-2-ylmethyl)pyrimidin-2-amine]		0.04
Cc1nc(NC2CCN3CCCC23)ncc1-c1ccc(OC(F)(F)F)cc1F (single isomer, unassigned) [Example 97c, N-(5-(2-fluoro-4-(trifluoromethoxy)phenyl)-4-methyl-pyrimidin-2-yl)hexahydro-1H-pyrrolizin-1-amine]		0.18
Cc1nc(NC2CCN(C)CC2)ncc1-c1ccc(OC(F)(F)F)cc1F [Example 89, 5-(2-fluoro-4-(trifluoromethoxy)phenyl)-4-methyl-N-(1-methylpiperidin-4-yl)pyrimidin-2-amine]		0.18
CN(C)C1CCC(Nc2ncc(-c3ccc(F)cc3F)c(C#N)n2)C1 (single isomer, unassigned) [Example 58b, 5-(2,4-difluorophenyl)-2-((3-(dimethylamino)cyclopentyl)amino) pyrimidine-4-carbonitrile]		0.056
[2H]C([2H])([2H])N1CCCC1CNc1ncc(-c2ccc(F)cc2F)c(C)n1 (stereo not shown) [Example 87]		0.045
Cc1nc(NC(C)[C@@H]2CCCN2)ncc1-c1ccc(C(F)(F)F)cc1F (single isomer, unassigned) [Example 130a, 5-(2-fluoro-4-(trifluoromethyl)phenyl)-4-methyl-N-((1*R)-1-((2S)-pyrrolidin-2-yl)ethyl)pyrimidin-2-amine]		0.118
